From patent publication US20080070885
Like-named read-outs stand apart in the source and are kept apart here.

Structure (SMILES)	ring closure, yield of all isomers (from C=CCCS(=O)(=O)C[C@@H](C)C(=O)N[C@@H](Cc1cccc(CC=C)c1)[C@@H]1C[C@@H](C)C(=O)O1, rcm bond, benzylidene(1,3-dimesitylimidazolidin-2-ylidene)(tricyclohexylphosphine)ruthenium dichloride (Grubbs II), dichloromethane, 60.0 °C, 2.5 h)	ring closure, yield of all isomers (from CCCCNC(=O)[C@H](C)C[C@H](O)[C@H](Cc1cccc(OCCCCC(=O)O)c1)NC(=O)[C@H](C)N, amide bond, BOP, diisopropylethylamine, DMF, 7.1 mM, 25.0 °C, 16.0 h)
C[C@@H]1CS(=O)(=O)CCC=CCc2cccc(c2)C[C@@H]([C@@H]2C[C@@H](C)C(=O)O2)NC1=O	74.7%	–
CCCCNC(=O)[C@H](C)C[C@H](O)[C@@H]1Cc2cccc(c2)OCCCCC(=O)N[C@@H](C)C(=O)N1 (relative stereo)	–	1.7%
